Patent publication US20230265151A1, “GIP/GLP1 CO-AGONIST COMPOUNDS” (priority 2020, published 2023)
Like-named read-outs stand apart in the source and are kept apart here. *1 amine or outer side, *2 acyl side, *3 side chain or, on linkers, in order; H or OH if unused. Where a SMILES comes first, the peptide text is derived from it. Side-chain parts run from the residue outwards. [ ]: non-standard residue; d: D form. The star is where a group is joined. αMePhe(2-F) = C[C@](N)(Cc1ccccc1F)C(=O)O; γGlu = O=C(O)[C@H](CCC(=O)[*:2])N[*:1]; C14 diacid = O=C(O)CCCCCCCCCCCCC(=O)*; αMeY = C[C@](N)(Cc1ccc(O)cc1)C(=O)O; 4Pal = N[C@@H](Cc1ccncc1)C(=O)O; αMeL = CC(C)C[C@](C)(N)C(=O)O; Orn = NCCC[C@H](N)C(=O)O; AEEA = NCCOCCOCC(=O)O; Aib = CC(C)(N)C(=O)O

Assays:
Format in all cases: cell-based
[1] = molecular target: hGLP-1R (Homo sapiens, UniProt P43220); experiment: Functional cAMP formation (HTRF) in HEK-293 clonal cells expressing hGLP-1R, 0.1% bovine casein, without or with 1.0% human serum albumin; design: expressed in transfected cells; settings: for Emax: 37° C., read-out: hGLP-1R Emax, % ± SEM; for EC50: cAMP, incubated at 37° C., 0.1% bovine casein (no human serum albumin), geometric mean, read-out: hGLP-1R EC50, nM (SEM, n)
Sequence of hGLP-1R (P43220 24-463): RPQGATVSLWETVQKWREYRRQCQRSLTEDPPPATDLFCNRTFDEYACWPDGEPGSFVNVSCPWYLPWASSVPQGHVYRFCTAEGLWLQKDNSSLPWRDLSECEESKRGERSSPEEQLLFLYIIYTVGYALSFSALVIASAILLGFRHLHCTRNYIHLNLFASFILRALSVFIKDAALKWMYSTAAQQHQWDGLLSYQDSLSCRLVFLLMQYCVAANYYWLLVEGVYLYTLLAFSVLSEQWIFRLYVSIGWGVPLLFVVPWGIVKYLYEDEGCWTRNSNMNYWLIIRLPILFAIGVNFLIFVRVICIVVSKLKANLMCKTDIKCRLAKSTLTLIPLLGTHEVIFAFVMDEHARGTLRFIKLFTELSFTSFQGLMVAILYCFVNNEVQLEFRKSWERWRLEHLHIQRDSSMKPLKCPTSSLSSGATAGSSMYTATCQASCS
Method in brief: (§1)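 Readings of the HTRF 665/620 nm ratio, which falls as cAMP rises, were converted to nM cAMP using a standard curve after 30 min peptide exposure at 37° C.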

[2] = molecular target: T1, hGIPR (Homo sapiens, UniProt P48546); experiment: Functional cAMP formation (HTRF) in HEK-293 clonal cells expressing hGIPR, 0.1% bovine casein, without or with 1.0% human serum albumin; settings: for Emax: 37° C., read-out: hGIPR Emax, % ± SEM; for EC50: cAMP, incubated at 37° C., 0.1% bovine casein (no human serum albumin), geometric mean, read-out: hGIPR EC50, nM (SEM, n)
T1 construct: expressed in transfected cells
T1 sequence (P48546 22-466): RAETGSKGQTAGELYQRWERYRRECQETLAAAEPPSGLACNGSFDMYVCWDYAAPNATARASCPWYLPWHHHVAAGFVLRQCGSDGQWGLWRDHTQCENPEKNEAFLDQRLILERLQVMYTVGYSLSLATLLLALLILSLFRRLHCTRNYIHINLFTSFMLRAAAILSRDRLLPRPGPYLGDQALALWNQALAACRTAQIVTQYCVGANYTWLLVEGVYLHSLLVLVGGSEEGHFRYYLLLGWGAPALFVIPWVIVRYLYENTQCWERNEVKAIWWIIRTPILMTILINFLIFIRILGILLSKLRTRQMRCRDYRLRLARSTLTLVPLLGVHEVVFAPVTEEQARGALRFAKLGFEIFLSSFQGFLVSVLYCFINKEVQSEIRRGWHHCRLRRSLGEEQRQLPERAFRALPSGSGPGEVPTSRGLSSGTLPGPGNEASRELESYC
Method in brief: as §1

[3] = molecular target: T2, hGCGR (Homo sapiens, UniProt P47871); experiment: Functional cAMP formation (HTRF) in HEK-293 clonal cells expressing hGCGR, 0.1% bovine casein, without or with 1.0% human serum albumin; settings: geometric mean, read-out: hGCGR EC50, nM (SEM, n)
T2 construct: expressed in transfected cells
T2 sequence (P47871 26-477): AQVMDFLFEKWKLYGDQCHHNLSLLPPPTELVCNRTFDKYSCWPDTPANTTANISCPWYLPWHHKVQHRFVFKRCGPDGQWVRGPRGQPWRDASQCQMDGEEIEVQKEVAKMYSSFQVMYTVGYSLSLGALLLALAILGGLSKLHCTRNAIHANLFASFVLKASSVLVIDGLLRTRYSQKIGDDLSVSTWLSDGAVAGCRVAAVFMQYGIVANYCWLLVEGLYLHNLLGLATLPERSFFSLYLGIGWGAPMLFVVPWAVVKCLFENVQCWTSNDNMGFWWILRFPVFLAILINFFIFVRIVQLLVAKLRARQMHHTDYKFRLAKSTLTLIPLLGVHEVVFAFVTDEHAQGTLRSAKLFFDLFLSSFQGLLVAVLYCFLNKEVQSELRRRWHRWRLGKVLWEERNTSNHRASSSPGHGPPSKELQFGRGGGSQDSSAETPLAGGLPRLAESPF
Method in brief: as §1

[4] = HEK293, 0.1% bovine casein and 1.0% human serum albumin, percent of maximal response to GLP-1(7-36)NH2
[5] = HEK293, percent of maximal response to GLP-1(7-36)NH2, 0.1% bovine casein, arithmetic mean
[6] = HEK293, 0.1% bovine casein and 1.0% human serum albumin, percent of maximal response to GIP(1-42)NH2
[7] = 0.1% bovine casein and 1.0% human serum albumin, 37° C.
[8] = cAMP, incubated at 37° C., 0.1% bovine casein (no human serum albumin)
[9] = HEK293, percent of maximal response to GIP(1-42)NH2, 0.1% bovine casein, arithmetic mean

Structure (SMILES)	Emax [1, 4]	Emax [1, 5]	EC50 [1]	Emax [2, 6]	EC50 [3, 7]	EC50 [3, 8]	Emax [2, 9]	EC50 [2]
CC[C@H](C)[C@H](NC(=O)[C@H](CCCN)NC(=O)[C@H](CC(=O)O)NC(=O)[C@H](CC(C)C)NC(=O)[C@](C)(CC(C)C)NC(=O)[C@@H](NC(=O)[C@H](CO)NC(=O)[C@H](Cc1ccncc1)NC(=O)[C@H](CC(=O)O)NC(=O)[C@H](CO)NC(=O)[C@@H](NC(=O)[C@](C)(Cc1ccccc1F)NC(=O)[C@@H](NC(=O)CNC(=O)[C@H](CCC(=O)O)NC(=O)C(C)(C)NC(=O)[C@@H](N)Cc1ccc(O)cc1)[C@@H](C)O)[C@@H](C)O)[C@@H](C)CC)C(=O)N[C@@H](C)C(=O)N[C@@H](CCC(N)=O)C(=O)NC(C)(C)C(=O)N[C@@H](CCCCNC(=O)COCCOCCNC(=O)COCCOCCNC(=O)COCCOCCNC(=O)CC[C@H](NC(=O)CCCCCCCCCCCCC(=O)O)C(=O)O)C(=O)N[C@@H](Cc1ccccc1)C(=O)N[C@H](C(=O)N[C@H](CCC(=O)O)C(=O)N[C@@](C)(Cc1ccc(O)cc1)C(=O)N[C@@H](CC(C)C)C(=O)N[C@H](C(=O)N[C@@H](CCCCNC(=O)COCCOCCNC(=O)COCCOCCNC(=O)COCCOCCNC(=O)CC[C@H](NC(=O)CCCCCCCCCCCCC(=O)O)C(=O)O)C(=O)NCC(=O)NCC(=O)N1CCC[C@H]1C(=O)N[C@@H](CO)C(=O)N[C@@H](CO)C(=O)NCC(=O)N[C@@H](C)C(=O)N1CCC[C@H]1C(=O)N1CCC[C@H]1C(=O)N1CCC[C@H]1C(=O)N[C@@H](CO)C(N)=O)[C@@H](C)CC)[C@@H](C)CC [Example 227]	111%	96.1%	1.22 nM	76.1%	> 9950 nM	> 9950 nM	–	–
CC[C@H](C)[C@H](NC(=O)[C@H](CCCN)NC(=O)[C@H](CC(=O)O)NC(=O)[C@H](CC(C)C)NC(=O)[C@](C)(CC(C)C)NC(=O)[C@@H](NC(=O)[C@H](CO)NC(=O)[C@H](Cc1ccncc1)NC(=O)[C@H](CC(=O)O)NC(=O)[C@H](CO)NC(=O)[C@@H](NC(=O)[C@](C)(Cc1ccccc1F)NC(=O)[C@@H](NC(=O)CNC(=O)[C@H](CCC(=O)O)NC(=O)C(C)(C)NC(=O)[C@@H](N)Cc1ccc(O)cc1)[C@@H](C)O)[C@@H](C)O)[C@@H](C)CC)C(=O)N[C@@H](C)C(=O)N[C@@H](CCC(N)=O)C(=O)NC(C)(C)C(=O)N[C@@H](CCCCNC(=O)COCCOCCNC(=O)COCCOCCNC(=O)COCCOCCNC(=O)CC[C@H](NC(=O)CCCCCCCCCCCCC(=O)O)C(=O)O)C(=O)N[C@@H](Cc1ccccc1)C(=O)N[C@H](C(=O)N[C@H](CCC(=O)O)C(=O)N[C@@](C)(Cc1ccc(O)cc1)C(=O)N[C@@H](CC(C)C)C(=O)N[C@H](C(=O)N[C@@H](CCC(=O)O)C(=O)NCC(=O)NCC(=O)N1CCC[C@H]1C(=O)N[C@@H](CO)C(=O)N[C@@H](CO)C(=O)NCC(=O)N[C@@H](C)C(=O)N1CCC[C@H]1C(=O)N1CCC[C@H]1C(=O)N1CCC[C@H]1C(=O)N[C@@H](CO)C(=O)N[C@@H](CCCCNC(=O)COCCOCCNC(=O)COCCOCCNC(=O)COCCOCCNC(=O)CC[C@H](NC(=O)CCCCCCCCCCCCC(=O)O)C(=O)O)C(N)=O)[C@@H](C)CC)[C@@H](C)CC [Example 228]	119%	91.1%	1.34 nM	83.3%	> 9950 nM	> 9950 nM	110%	0.0232 nM
CC[C@H](C)[C@H](NC(=O)[C@H](CCCN)NC(=O)[C@H](CC(=O)O)NC(=O)[C@H](CC(C)C)NC(=O)[C@](C)(CC(C)C)NC(=O)[C@@H](NC(=O)[C@H](CO)NC(=O)[C@H](Cc1ccncc1)NC(=O)[C@H](CC(=O)O)NC(=O)[C@H](CO)NC(=O)[C@@H](NC(=O)[C@](C)(Cc1ccccc1F)NC(=O)[C@@H](NC(=O)CNC(=O)[C@H](CCC(=O)O)NC(=O)C(C)(C)NC(=O)[C@@H](N)Cc1ccc(O)cc1)[C@@H](C)O)[C@@H](C)O)[C@@H](C)CC)C(=O)N[C@@H](C)C(=O)N[C@@H](CCC(N)=O)C(=O)NC(C)(C)C(=O)N[C@@H](CCC(=O)O)C(=O)N[C@@H](Cc1ccccc1)C(=O)N[C@H](C(=O)N[C@H](CCC(=O)O)C(=O)N[C@@](C)(Cc1ccc(O)cc1)C(=O)N[C@@H](CC(C)C)C(=O)N[C@H](C(=O)N[C@@H](CCCCNC(=O)COCCOCCNC(=O)COCCOCCNC(=O)COCCOCCNC(=O)CC[C@H](NC(=O)CCCCCCCCCCCCC(=O)O)C(=O)O)C(=O)NCC(=O)NCC(=O)N1CCC[C@H]1C(=O)N[C@@H](CO)C(=O)N[C@@H](CO)C(=O)NCC(=O)N[C@@H](C)C(=O)N1CCC[C@H]1C(=O)N1CCC[C@H]1C(=O)N1CCC[C@H]1C(=O)N[C@@H](CO)C(=O)N[C@@H](CCCCNC(=O)COCCOCCNC(=O)COCCOCCNC(=O)COCCOCCNC(=O)CC[C@H](NC(=O)CCCCCCCCCCCCC(=O)O)C(=O)O)C(N)=O)[C@@H](C)CC)[C@@H](C)CC [Example 229] (H-Y[Aib]EGT[αMePhe(2-F)]TSD[4Pal]SI[αMeL]LD[Orn]IAQ[Aib]EFI[dE][αMeY]LIK([AEEA-AEEA-AEEA-γGlu-C14 diacid])GGPSSGAPPPSK([AEEA-AEEA-AEEA-γGlu-C14 diacid])-NH2)	99%	94.3%	2.25 nM	80.5%	> 9950 nM	> 9950 nM	–	0.0253 nM
CC[C@H](C)[C@H](NC(=O)[C@H](CC(C)C)NC(=O)[C@](C)(Cc1ccc(O)cc1)NC(=O)[C@@H](CCC(=O)O)NC(=O)[C@@H](NC(=O)[C@H](Cc1ccccc1)NC(=O)[C@H](CCCCNC(=O)COCCOCCNC(=O)COCCOCCNC(=O)CC[C@H](NC(=O)CCCCCCCCCCCCC(=O)O)C(=O)O)NC(=O)C(C)(C)NC(=O)[C@H](CCC(N)=O)NC(=O)[C@H](C)NC(=O)[C@H](CCCCNC(=O)COCCOCCNC(=O)COCCOCCNC(=O)CC[C@H](NC(=O)CCCCCCCCCCCCC(=O)O)C(=O)O)NC(=O)[C@H](CCCN)NC(=O)[C@H](CC(=O)O)NC(=O)[C@H](CC(C)C)NC(=O)[C@](C)(CC(C)C)NC(=O)[C@@H](NC(=O)C(C)(C)NC(=O)[C@H](Cc1ccc(O)cc1)NC(=O)[C@H](CC(=O)O)NC(=O)[C@H](CO)NC(=O)[C@@H](NC(=O)[C@](C)(Cc1ccccc1F)NC(=O)[C@@H](NC(=O)CNC(=O)[C@H](CCC(=O)O)NC(=O)C(C)(C)NC(=O)[C@@H](N)Cc1ccc(O)cc1)[C@@H](C)O)[C@@H](C)O)[C@@H](C)CC)[C@@H](C)CC)C(=O)N[C@@H](CCC(=O)O)C(=O)NCC(=O)NCC(=O)N1CCC[C@H]1C(=O)N[C@@H](CO)C(=O)N[C@@H](CO)C(=O)NCC(=O)N[C@@H](C)C(=O)N1CCC[C@H]1C(=O)N1CCC[C@H]1C(=O)N1CCC[C@H]1C(=O)N[C@@H](CO)C(N)=O [Example 230]	–	90.3%	0.726 nM	85.8%	> 9950 nM	> 9950 nM	105%	0.0199 nM
